Active and inactive are the calls of the source. The calls are words filed in the database; no cut-off is given here.

One data set concerns Rattus norvegicus. Briefly: Inhibition of MetAP2 in Sprague-Dawley rat assessed as free MetAP2 level in whole blood at 3 mg/kg, po after 2 to 4 hrs by ELISA relative to vehicle-treated control. Further details: dose 3 mg/kg. Format: functional, organism-based.
Settings: not given
Consider `C=C([C@H](O)CC=C(C)C)[C@H]1[C@H](OC)[C@H](OC(=O)N[C@@H](C(N)=O)C(C)C)CC[C@]12CO2`, for which the inhibition result is “Active”.
The same measure, in the same setting: next, `CO[C@@H]1[C@H](OC(=O)N[C@@H](C(N)=O)C(C)C)CC[C@@]2(O)CO[C@](C)([C@H](O)CC=C(C)C)[C@@H]12`: “inactive”; `CO[C@H]1[C@@H]([C@@]2(C)O[C@@H]2CC=C(C)C)[C@]2(CC[C@H]1OC(=O)N[C@@H](C(N)=O)C(C)C)CO2`: “Active”.
Same read-out and setting: next, `C=C([C@H](O)CC=C(C)C)[C@H]1[C@H](OC)[C@H](OC(=O)N[C@@H](C(N)=O)C(C)C)CC[C@]1(O)CCl`: “Active”; `CO[C@@H]1[C@H](OC(=O)N[C@@H](C(N)=O)C(C)C)CC[C@](O)(CCl)[C@H]1[C@@]1(C)O[C@@H]1CC=C(C)C`: “Active”.
Same read-out and setting: next, `CO[C@@H]1[C@H](OC(=O)N[C@@H](C(N)=O)C(C)C)CC[C@]2(O)CO[C@](C)([C@H](O)CC=C(C)C)[C@@H]12`: “inactive”.

The test system of a further data set is Rattus norvegicus. As to the kind of experiment: Inhibition of MetAP2 in Sprague-Dawley rat assessed as free MetAP2 level in liver at 3 mg/kg, po after 24 hrs by ELISA relative to vehicle-treated control.
Settings: not given
It counts as functional, organism-based. Further details: dose 3 mg/kg. In general terms: In an ELISA, binding on a coated surface is turned into a signal by an enzyme label.
For `C=C([C@H](O)CC=C(C)C)[C@H]1[C@H](OC)[C@H](OC(=O)N[C@@H](C(N)=O)C(C)C)CC[C@]12CO2`, the inhibition result was “Active”.
With `CO[C@@H]1[C@H](OC(=O)N[C@@H](C(N)=O)C(C)C)CC[C@@]2(O)CO[C@](C)([C@H](O)CC=C(C)C)[C@@H]12`, the inhibition entry is “inactive”.
For the compound `CO[C@H]1[C@@H]([C@@]2(C)O[C@@H]2CC=C(C)C)[C@]2(CC[C@H]1OC(=O)N[C@@H](C(N)=O)C(C)C)CO2`, the inhibition entry was “Active”.
As for `C=C([C@H](O)CC=C(C)C)[C@H]1[C@H](OC)[C@H](OC(=O)N[C@@H](C(N)=O)C(C)C)CC[C@]1(O)CCl`, the inhibition entry is “Active”.
Same read-out and setting: next, `CO[C@@H]1[C@H](OC(=O)N[C@@H](C(N)=O)C(C)C)CC[C@](O)(CCl)[C@H]1[C@@]1(C)O[C@@H]1CC=C(C)C`: “Active”; `CO[C@@H]1[C@H](OC(=O)N[C@@H](C(N)=O)C(C)C)CC[C@]2(O)CO[C@](C)([C@H](O)CC=C(C)C)[C@@H]12`: “inactive”.

The target in the next data set is Methionine aminopeptidase 2 (Homo sapiens) (UniProt P50579). Briefly: Inhibition of MetAP2 (unknown origin) using Met-AMC as substrate in MES buffer at pH 6.5 at 200 nM after 8 hrs.
Chain of Methionine aminopeptidase 2 (Homo sapiens) (P50579 2-478 limits assumed): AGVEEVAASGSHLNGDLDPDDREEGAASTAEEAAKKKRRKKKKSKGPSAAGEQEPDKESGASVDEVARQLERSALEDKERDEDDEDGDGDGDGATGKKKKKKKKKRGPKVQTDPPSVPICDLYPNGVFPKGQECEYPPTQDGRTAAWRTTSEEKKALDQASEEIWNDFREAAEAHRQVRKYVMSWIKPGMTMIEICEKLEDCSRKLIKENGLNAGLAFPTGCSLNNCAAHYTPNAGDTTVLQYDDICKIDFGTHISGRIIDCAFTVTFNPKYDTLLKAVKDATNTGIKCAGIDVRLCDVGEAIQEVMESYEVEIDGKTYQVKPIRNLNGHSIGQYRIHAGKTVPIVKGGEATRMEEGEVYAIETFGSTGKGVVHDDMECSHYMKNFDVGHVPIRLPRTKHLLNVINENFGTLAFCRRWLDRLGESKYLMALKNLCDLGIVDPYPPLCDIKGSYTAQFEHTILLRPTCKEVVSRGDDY
Settings: not given
Take `CO[C@H]1[C@@H]([C@@]2(C)O[C@@H]2CC=C(C)C)[C@]2(CC[C@H]1OC(=O)N[C@@H](C(N)=O)C(C)C)CO2`: the inhibition result is “Active”.
The same measure, in the same setting: as for `CO[C@@H]1[C@H](OC(=O)N[C@@H](C(N)=O)C(C)C)CC[C@](O)(CCl)[C@H]1[C@@]1(C)O[C@@H]1CC=C(C)C`, the entry is “inactive”.

Test system in the next data set: not listed separately
Briefly: Stability of the compound in MES buffer at pH 6.5 after 8 hrs by LC-MS analysis. It counts as physicochemical. As to conditions: pH 6.5, 8 h.
On to `CO[C@@H]1[C@H](OC(=O)N[C@@H](C(N)=O)C(C)C)CC[C@](O)(CCl)[C@H]1[C@@]1(C)O[C@@H]1CC=C(C)C`, for which the Stability entry is reported as “Stable”.

In the next data set the test system is HUVEC. As to the kind of experiment: Antiproliferative activity against human HUVEC cells after 3 days. The settings on record: 72 h. Format: functional, cell-based.
Usually IC50 stands for the concentration that inhibits the measured activity by half. A high value points to lower potency. `C=C([C@H](O)CC=C(C)C)[C@H]1[C@H](OC)[C@H](OC(=O)N[C@@H](C(N)=O)C(C)C)CC[C@]12CO2`: it took 3.1 nM to reach half-maximal inhibition (IC50).
On the same count and under the same terms, as for `CO[C@@H]1[C@H](OC(=O)N[C@@H](C(N)=O)C(C)C)CC[C@@]2(O)CO[C@](C)([C@H](O)CC=C(C)C)[C@@H]12`, the figure is more than 30000 nM; as for `CO[C@H]1[C@@H]([C@@]2(C)O[C@@H]2CC=C(C)C)[C@]2(CC[C@H]1OC(=O)N[C@@H](C(N)=O)C(C)C)CO2`, 0.18 nM.
The same measure, in the same setting: as for `C=C([C@H](O)CC=C(C)C)[C@H]1[C@H](OC)[C@H](OC(=O)N[C@@H](C(N)=O)C(C)C)CC[C@]1(O)CCl`, the figure is 3.3 nM; as for `CO[C@@H]1[C@H](OC(=O)N[C@@H](C(N)=O)C(C)C)CC[C@](O)(CCl)[C@H]1[C@@]1(C)O[C@@H]1CC=C(C)C`, 0.15 nM; as for `CO[C@@H]1[C@H](OC(=O)N[C@@H](C(N)=O)C(C)C)CC[C@]2(O)CO[C@](C)([C@H](O)CC=C(C)C)[C@@H]12`, more than 30000 nM.

The test system of another data set is Rattus norvegicus. As to the kind of experiment: Inhibition of MetAP2 in Sprague-Dawley rat assessed as free MetAP2 level in thymus at 3 mg/kg, po after 24 hrs by ELISA relative to vehicle-treated control. It counts as functional, organism-based. Further details: dose 3 mg/kg.
Settings: not given
Take `C=C([C@H](O)CC=C(C)C)[C@H]1[C@H](OC)[C@H](OC(=O)N[C@@H](C(N)=O)C(C)C)CC[C@]12CO2`: the inhibition entry is “Active”.
On the same count and under the same terms, as for `CO[C@@H]1[C@H](OC(=O)N[C@@H](C(N)=O)C(C)C)CC[C@@]2(O)CO[C@](C)([C@H](O)CC=C(C)C)[C@@H]12`, the entry is “inactive”; as for `CO[C@H]1[C@@H]([C@@]2(C)O[C@@H]2CC=C(C)C)[C@]2(CC[C@H]1OC(=O)N[C@@H](C(N)=O)C(C)C)CO2`, “Active”; as for `C=C([C@H](O)CC=C(C)C)[C@H]1[C@H](OC)[C@H](OC(=O)N[C@@H](C(N)=O)C(C)C)CC[C@]1(O)CCl`, “Active”.
Same read-out and setting: next, `CO[C@@H]1[C@H](OC(=O)N[C@@H](C(N)=O)C(C)C)CC[C@](O)(CCl)[C@H]1[C@@]1(C)O[C@@H]1CC=C(C)C`: “Active”.
`CO[C@@H]1[C@H](OC(=O)N[C@@H](C(N)=O)C(C)C)CC[C@]2(O)CO[C@](C)([C@H](O)CC=C(C)C)[C@@H]12`: the inhibition entry is “inactive”.

Another data set has as its target Methionine aminopeptidase 2 (Homo sapiens) (UniProt P50579). As to the kind of experiment: Inhibition of MetAP2 (unknown origin) using Met-AMC as substrate assessed as residual activity at 200 nM after 8 hrs.
Settings: not given
As to `C=C([C@H](O)CC=C(C)C)[C@H]1[C@H](OC)[C@H](OC(=O)N[C@@H](C(N)=O)C(C)C)CC[C@]12CO2`, the Activity worked out at 27%.
The same measure, in the same setting: as for `CO[C@@H]1[C@H](OC(=O)N[C@@H](C(N)=O)C(C)C)CC[C@@]2(O)CO[C@](C)([C@H](O)CC=C(C)C)[C@@H]12`, the figure is 105%.
Same read-out and setting: next, `CO[C@H]1[C@@H]([C@@]2(C)O[C@@H]2CC=C(C)C)[C@]2(CC[C@H]1OC(=O)N[C@@H](C(N)=O)C(C)C)CO2`: 3%; `C=C([C@H](O)CC=C(C)C)[C@H]1[C@H](OC)[C@H](OC(=O)N[C@@H](C(N)=O)C(C)C)CC[C@]1(O)CCl`: 58%; `CO[C@@H]1[C@H](OC(=O)N[C@@H](C(N)=O)C(C)C)CC[C@](O)(CCl)[C@H]1[C@@]1(C)O[C@@H]1CC=C(C)C`: 6%.
On the same count and under the same terms, as for `CO[C@@H]1[C@H](OC(=O)N[C@@H](C(N)=O)C(C)C)CC[C@]2(O)CO[C@](C)([C@H](O)CC=C(C)C)[C@@H]12`, the figure is 107%.

The next data set relates to Plasma. As to the kind of experiment: Drug metabolism in rat plasma assessed as PPI-2458 formation at 4 degC after 1 hr by HPLC/MS/MS analysis. Format: ADME, cell-free.
Settings: not given
As to `CO[C@@H]1[C@H](OC(=O)N[C@@H](C(N)=O)C(C)C)CC[C@](O)(CCl)[C@H]1[C@@]1(C)O[C@@H]1CC=C(C)C`, the Stability result was “Unstable”.

Another data set concerns the target Methionine aminopeptidase 2 (Homo sapiens) (UniProt P50579). As to the kind of experiment: Inhibition of MetAP2 (unknown origin) using Met-AMC as substrate in HEPES buffer at pH 7.5 at 200 nM after 8 hrs.
Settings: not given
As to `CO[C@H]1[C@@H]([C@@]2(C)O[C@@H]2CC=C(C)C)[C@]2(CC[C@H]1OC(=O)N[C@@H](C(N)=O)C(C)C)CO2`, the inhibition entry was “Active”.
On the same count and under the same terms, as for `CO[C@@H]1[C@H](OC(=O)N[C@@H](C(N)=O)C(C)C)CC[C@](O)(CCl)[C@H]1[C@@]1(C)O[C@@H]1CC=C(C)C`, the entry is “Active”.

The values are drawn from ChEMBL document CHEMBL2331401, “Orally active fumagillin analogues: transformations of a reactive warhead in the gastric environment” (ACS Med Chem Lett, 2013).
